Data on two compounds can be found in patent publication US6939569B1, “Medical device having anti-infective and contraceptive properties” (Oxibio, Inc., priority 1998, dated 2005).

Bounds are passed on as bounds.

The test system of one test is C. albicans (ATCC 66027). The test is described as follows: Microbicidal activity of iodate/iodide silicone tablet formulations in inoculated BHI, pH 4.0. It is filed as cell-based. Particulars: together with iodate threshold. The method, then: Experiments were performed to optimize formulations used in fabricating the inventive device formulated with silicone elastomer. […] The polymer was allowed to cure with dibutyl tin dilaurate catalyst additions, and then devices were prepared (0.6 cm diameter 0.3 mm thick) using “hole punch” tablets from the disc shaped device to test for microbicidal activity using C. albicans inoculated BHI. […] Tablets obtained from the fabricated device were suspended in the inoculum at 1 tablet/ml. At varying intervals, aliquots of the inoculum, incubated at 35° C. in air, were subcultured to sheep blood agar plates and incubated for an additional 24 hours at 35° C. in air to determine the effect of the varying formulations on the C. albicans inoculums.

In the case of `II` [elemental iodine], the “elemental iodine concentrations required to affect microbial killing” value in the test on C. albicans was under 0.01%.
As for `I` [iodide], the “critical media concentration of iodide necessary to effect C. albicans killing” value in the test with C. albicans (ATCC 66027) is at least 0.5 mM.
